One molecule from patent publication US20210069295A1, “GALECTINS CONTROL MTOR IN RESPONSE TO ENDOMEMBRANE DAMAGE AND PROVIDE A MECHANISM AND TARGET FOR THE TREATMENT OF AUTOPHAGY-RELATED DISEASES” (STC. UNM, priority 2017, published 2021) can be followed below.

Peptide text beside a SMILES is read from it.

Assay [1] has as its system bone marrow-derived macrophages (BMMs). Briefly: LysoTracker Red DND-99 staining in bone marrow-derived macrophages (BMMs). The assay is classed as cell-based, murine. The following applies: GPN 400 μM or LLOMe, 1 h.
Assay [2] concerns TFEB. Briefly: TFEB nuclear translocation by high-content microscopy in HeLa cells. The following applies: 1 h full medium. The assay is classed as cell-based. The protocol: (§1) (A) Dose-response analysis of mTOR activity in HEK293T cells treated with glycyl-L-phenylalanine 2-naphththylamide (GPN) in full medium for 1 h. mTOR activity was monitored by inununoblotting analysis of S6K1 (T389) and ULK1 (S757) phosphorylation (phosphorylated S6K (T389) and ULK1 (S757) relative to total S6K and ULK1, respectively). (B) Analysis of mTOR activity (as in A) after GPN washout. HEK293T cells were treated with 100 μM GPN for 1 h followed by 1 h washout in full medium. Data, means±SEM (n=3), **p<0.01, ANOVA. (C) Analysis of mTOR activity (as in A) in HEK293T cells treated with increasing doses of silica in full medium for 1 h. (D) HEK293T cells were treated with lysosomal damaging agents (LLOMe, Leu-Leu-OMe) for 1 h in full medium and status of acidified organelles assessed by quantifying LysoTracker Red DND-99 puncta using automated high-content imaging and analysis (HC). […] Data, means±SEM, n≥3 independent experiments (500 primary objects counted per well; ≥5 wells/sample per each experiment), **p<0.01, ANOVA. […] Human peripheral blood monocyte derived macrophages were treated with 100 μM GPN in full medium or starved in EBSS for 1 h, and mTOR activity measured as in A. None-treated cells were as control (Ctrl). […] Data, means±SEM, n≥3 independent experiments (500 primary objects counted per well; ≥5 wells/sample per each experiment) **p<0.01, ANOVA. […]

The test system of assay [3] is mTOR. The assay is described as follows: mTOR activity in human peripheral blood monocyte derived macrophages. The following applies: 100 μM GPN, 1 h. The assay is classed as cell-based. The protocol: as §1
In assay [4] the test system is AMPK. Briefly: AMPK activation by immunoblotting of phosphorylated AMPKα, ACC and ULK1 in HEK293A cells. In kind it is cell-based.
The test system of assay [5] is mTOR. The assay is described as follows: mTOR activity by immunoblotting of S6K1 (T389) and ULK1 (S757) phosphorylation in HEK293T cells. In kind it is cell-based. The method, then:
(A) Dose-response analysis of mTOR activity in HEK293T cells treated with glycyl-L-phenylalanine 2-naphththylamide (GPN) in full medium for 1 h. mTOR activity was monitored by inununoblotting analysis of S6K1 (T389) and ULK1 (S757) phosphorylation (phosphorylated S6K (T389) and ULK1 (S757) relative to total S6K and ULK1, respectively). (B) Analysis of mTOR activity (as in A) after GPN washout. HEK293T cells were treated with 100 μM GPN for 1 h followed by 1 h washout in full medium. Data, means±SEM (n=3), **p<0.01, ANOVA. (C) Analysis of mTOR activity (as in A) in HEK293T cells treated with increasing doses of silica in full medium for 1 h. (D) HEK293T cells were treated with lysosomal damaging agents (LLOMe, Leu-Leu-OMe) for 1 h in full medium and status of acidified organelles assessed by quantifying LysoTracker Red DND-99 puncta using automated high-content imaging and analysis (HC). None-treated cells were as control (Ctrl). White masks, algorithm defined cell boundaries (primary objects); yellow masks, computer-identified LysoTracker Red puncta (target objects). Data, means±SEM, n≥3 independent experiments (500 primary objects counted per well; ≥5 wells/sample per each experiment), **p<0.01, ANOVA. (E) Analysis of mTOR activity in primary human macrophages treated with GPN. Human peripheral blood monocyte derived macrophages were treated with 100 μM GPN in full medium or starved in EBSS for 1 h, and mTOR activity measured as in A. None-treated cells were as control (Ctrl). (F) Quantification by HC of overlaps between mTOR and LAMP2 (representative images shown in FIG. S1D) in HeLa cells treated with lysosomal damaging agents for 1 h in full medium. Data, means±SEM, n≥3 independent experiments (500 primary objects counted per well; ≥5 wells/sample per each experiment) **p<0.01, ANOVA. (G) Immunofluorescence confocal microscopy visualization of mTOR localization relative to LAMP2-positive lysosomes. […] (H) Analysis of TFEB nuclear translocation in HeLa cells treated with 100 μM GPN in full medium for 1 h, and the nuclear translocation of TFEB was measured by HC (Nuclei, Hoechst 33342, blue pseudocolor; TFEB red fluorescence, Alexa-568). […] White masks, computer algorithm-defined cell boundaries (primary objects); pink masks, computer-identified nuclear TFEB based on the average intensity of Alexa-568 fluorescence. Data, means±SEM, n≥3 independent experiments (500 primary objects counted per well; ≥5 wells/sample per each experiment), **p<0.01, ANOVA. (I) HeLa cells were treated as indicated in full medium for 1 h, and LC3 puncta were quantified by HC. […] Data, means±SEM, n≥3 independent experiments (500 primary objects counted per well; ≥5 wells/sample per each experiment), **p<0.01, ANOVA. […]
A general note: A western blot detects proteins with antibodies after separation by electrophoresis.

In the case of `NCC(=O)N[C@@H](Cc1ccccc1)C(=O)Nc1ccc2ccccc2c1` [GPN, glycyl-L-phenylalanine 2-naphththylamide] (HELM PEPTIDE1{G.F.[c1ccc2cc(N[*:1])ccc2c1]}$$$$V2.0), the “LysoTracker Red DND-99 staining in BMMs (lysosomal damage)” value in assay [1] is “reduced LysoTracker Red DND-99 staining”. For the same molecule, the TFEB nuclear translocation entry in assay [2] is “translocated to the nucleus from the cytoplasm”. Also, the “mTOR activity in primary cells” value in assay [3] is “confirmed”. In assay [4] (100 μM GPN), the “ULK1 pS317 (activating AMPK phosphosite)” value is on record as “increase”, the “ULK1 pS757 (mTOR-dependent inactivating phosphosite)” value was “decreased” and the “phosphorylation of S79 of acetyl-CoA carboxylase (ACC)” value is “elevated phosphorylation”. In assay [4] (HEK293A, 100 μM GPN in full medium), the “AMPK activation (AMPKα T172 phosphorylation)” value was “activated”. For the same molecule, the “mTOR activity after washout” value in assay [5] (100 μM GPN for 1 h followed by 1 h washout in full medium) is “reversed”. In addition, in assay [5] (HEK293T cells, full medium, 1 h), the “mTOR activity (phosphorylation of its substrates S6K1 and ULK1)” value is “diminished mTOR activity”. Moreover, the “mTOR activity (S6K1 phosphorylation) in cells expressing constitutively active RagBQ99L” value in assay [5] (HEK293T stably expressing RagBQ99L, 100 μM GPN 1 h) is “not the case”.
